Reference: ChEMBL document CHEMBL5344413, “Discovery of 4-(1,2,4-Oxadiazol-5-yl)azepan-2-one Derivatives as a New Class of Cannabinoid Type 2 Receptor Agonists for the Treatment of Inflammatory Pain” (J Med Chem, 2023)
Calls of active or inactive are those of the source.

What was measured:
CHO [1] = assay: Agonist activity at CB2 receptor F872.57A mutant (unknown origin) expressed in CHO cells assessed as inhibition of forskolin-stimulated intracellular cAMP accumulation measured after 30 mins by Glosensor assay; format: cell-based; conditions: Homo sapiens
CHO [2] = assay: Agonist activity at CB2 receptor W1945.43A mutant (unknown origin) expressed in CHO cells assessed as inhibition of forskolin-stimulated intracellular cAMP accumulation measured after 30 mins by Glosensor assay; format: cell-based; conditions: Homo sapiens
[3] = MRT(0 to t) in BALB/c mouse at 1 mg/kg, iv; format: ADME, organism-based; conditions: in vivo
[4] = Cmax in BALB/c mouse at 5 mg/kg, ip; format: ADME, organism-based; parameters: dose 5 mg/kg, route ip; conditions: in vivo
Mus musculus [5] = assay: (§1) Antinociceptive activity against carrageenan-induced inflammatory C57BL/6 mouse model assessed as reduction in hyperalgesia by measuring increase in paw withdrawal threshold at 20 mg/kg, ip administered with CB2 receptor antagonist, AM630 at 10 mins prior to drug challenge and measured at 5 hrs and 2 hrs following carrageenan and compound challenge respectively by plantar esthesiometer analysis; format: functional, organism-based
[6] = Clearance in BALB/c mouse at 1 mg/kg, iv; format: ADME, organism-based; conditions: in vivo
[7] = Intrinsic clearance in rat liver at 10 uM measured per kg body weight; format: ADME, tissue-based
Mus musculus [8] = assay: as §1, with “po” for “ip administered with CB2 receptor antagonist, AM630 at 10 mins prior to drug challenge and”; format: functional, organism-based
Homo sapiens = species on record: Homo sapiens; assay: Selectivity ratio of EC50 for agonist activity at human CB1 receptor expressed in CHO cells to EC50 for agonist activity at human CB2 receptor expressed in CHO cells; format: cell-based
[9] = Clearance in BALB/c mouse at 5 mg/kg, po; format: ADME, organism-based; conditions: in vivo
CHO [10] = assay: Induction of ERK1/2 phosphorylation in Chinese hamster CHO cells at 1000 nM measured after 15 mins by western blot analysis; format: cell-based; conditions: Cricetulus griseus
CHO [11] = assay: Induction of Akt phosphorylation in Chinese hamster CHO cells at 1000 nM measured after 15 mins by western blot analysis; format: cell-based; conditions: Cricetulus griseus
[12] = AUC(0 to t) in BALB/c mouse at 1 mg/kg, iv; format: ADME, organism-based; parameters: dose 1 mg/kg, route iv; conditions: in vivo
[13] = Toxicity against C57BL/6 mouse assessed as change in body temperature at 20 mg/kg, ip measured within 4 hrs by thermometer analysis; format: organism-based; conditions: in vivo
Cannabinoid receptor 1 = Cannabinoid receptor 1 (Homo sapiens, UniProt P21554); assay: Agonist activity at human CB1 receptor expressed in CHO cells assessed as inhibition of forskolin-stimulated intracellular cAMP accumulation measured after 30 mins by Glosensor assay; format: cell-based
Chain of Cannabinoid receptor 1 (P21554 whole entry): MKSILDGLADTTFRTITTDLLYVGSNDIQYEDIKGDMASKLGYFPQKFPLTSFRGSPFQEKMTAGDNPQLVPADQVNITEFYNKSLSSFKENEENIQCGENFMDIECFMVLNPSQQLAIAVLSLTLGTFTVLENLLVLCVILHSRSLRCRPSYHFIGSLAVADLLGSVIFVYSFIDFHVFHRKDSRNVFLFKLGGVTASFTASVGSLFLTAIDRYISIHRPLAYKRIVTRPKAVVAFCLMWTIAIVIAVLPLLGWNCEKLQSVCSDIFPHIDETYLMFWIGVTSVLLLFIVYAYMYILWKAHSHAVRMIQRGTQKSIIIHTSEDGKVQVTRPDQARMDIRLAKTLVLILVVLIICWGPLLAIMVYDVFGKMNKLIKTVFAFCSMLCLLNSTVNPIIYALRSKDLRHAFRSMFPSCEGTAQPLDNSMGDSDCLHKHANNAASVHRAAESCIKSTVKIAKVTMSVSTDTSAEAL

[14] = Metabolic stability of the compound in human liver microsomes assessed as parent compound remaining at 10 uM measured after 60 mins; format: ADME, Microsome; conditions: read-out: Stability
Cannabinoid receptor 2 [15] = molecular target: T1, Cannabinoid receptor 2 (Homo sapiens, UniProt P34972); assay: Agonist activity at N-terminal HA/Flag-tagged CB2 receptor (unknown origin) expressed in CHO cells assessed as increase in ERK1/2 phosphorylation at 300 nM measured after 15 mins in presence of CB2 receptor antagonist, AM630 by western blot analysis; format: functional, cell-based
T1 sequence (P34972 whole entry): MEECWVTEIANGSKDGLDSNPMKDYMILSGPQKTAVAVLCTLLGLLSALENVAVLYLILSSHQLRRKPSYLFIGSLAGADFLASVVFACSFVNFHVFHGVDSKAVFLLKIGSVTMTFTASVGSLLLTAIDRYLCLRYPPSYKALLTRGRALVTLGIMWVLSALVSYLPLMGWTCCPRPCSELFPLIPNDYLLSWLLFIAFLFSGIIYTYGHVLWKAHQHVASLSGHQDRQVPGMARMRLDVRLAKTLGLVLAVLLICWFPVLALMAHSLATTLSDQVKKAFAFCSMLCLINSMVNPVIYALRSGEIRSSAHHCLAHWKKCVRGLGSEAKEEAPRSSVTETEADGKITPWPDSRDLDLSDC

[16] = Half life in human liver microsomes at 10 uM; format: ADME, Microsome
[17] = MRT(0 to t) in BALB/c mouse at 5 mg/kg, po; format: ADME, organism-based; conditions: in vivo
[18] = Half life in BALB/c mouse at 20 mg/kg, po; format: ADME, organism-based; conditions: in vivo
[19] = Half life in BALB/c mouse at 5 mg/kg, po; format: ADME, organism-based; conditions: in vivo
[20] = Tmax in BALB/c mouse at 1 mg/kg, iv; format: ADME, organism-based; conditions: in vivo
[21] = Intrinsic clearance in rat liver microsomes at 10 uM measured per mg protein; format: ADME, Microsome; conditions: read-out: CLH
[22] = Cmax in BALB/c mouse at 1 mg/kg, iv; format: ADME, organism-based; parameters: dose 1 mg/kg, route iv; conditions: in vivo
[23] = Half life in BALB/c mouse at 1 mg/kg, iv; format: ADME, organism-based; conditions: in vivo
[24] = Protein binding in rat plasma by dialysis method; format: ADME, cell-free; conditions: read-out: PPB (converted)
[25] = Half life in rat liver microsomes at 10 uM; format: ADME, Microsome
Mus musculus [26] = assay: Antinociceptive activity against ip dosed carrageenan-induced inflammatory C57BL/6 mouse model assessed as reduction in hyperalgesia by measuring increase in paw withdrawal threshold measured at 5 hrs and 2 hrs following carrageenan and compound challenge respectively by plantar esthesiometer analysis; format: functional, organism-based; conditions: dose 5-20 mg/kg
Cannabinoid receptor 2 [27] = molecular target: T1, Cannabinoid receptor 2; assay: Agonist activity at N-terminal HA/Flag-tagged CB2 receptor (unknown origin) expressed in CHO cells assessed as increase in Akt phosphorylation measured after 15 mins by western blot analysis; format: functional, cell-based; conditions: filed as agonist, dose 12-300 nM
[28] = Toxicity against C57BL/6 mouse assessed as induction of catalepsy at 20 mg/kg, ip measured within 4 hrs; format: organism-based; conditions: in vivo
[29] = test system: Cannabinoid receptor 2 (Homo sapiens), P34972 [UNDEFINED MUTATION]; assay: Agonist activity at CB2 receptor F183ECL2A mutant (unknown origin) expressed in CHO cells assessed as inhibition of forskolin-stimulated intracellular cAMP accumulation measured after 30 mins by Glosensor assay; format: cell-based
Chain of Cannabinoid receptor 2 (Homo sapiens), P34972 [UNDEFINED MUTATION] (P34972 whole entry, looked up, stated change not applied): as the sequence (P34972 whole entry) above

[30] = Protein binding in mouse plasma by dialysis method; format: ADME, cell-free; conditions: read-out: PPB (converted)
[31] = AUC(0 to infinity) in BALB/c mouse at 20 mg/kg, po; format: ADME, organism-based; parameters: dose 20 mg/kg, route po; conditions: in vivo
Cannabinoid receptor 2 [32] = molecular target: T1, Cannabinoid receptor 2; assay: Agonist activity at LgBiT-fused CB2 receptor (unknown origin) coexpressed with miniGalphai-SmBiT in HEK293T cells assessed as G-protein recruitment by measuring complementation measured after 10 mins by NanoBiT luciferase assay; format: functional, cell-based
[33] = Cmax in BALB/c mouse at 5 mg/kg, po; format: ADME, organism-based; parameters: dose 5 mg/kg, route po; conditions: in vivo
[34] = Bioavailability in BALB/c mouse at 5 mg/kg, ip; format: ADME, organism-based; conditions: in vivo
Mus musculus [35] = assay: as §1, with “in” for “in hyperalgesia by measuring increase in”, “thickness” for “withdrawal threshold”, “digital caliper” for “plantar esthesiometer”; format: functional, organism-based
[36] = AUC(0 to t) in BALB/c mouse at 5 mg/kg, ip; format: ADME, organism-based; parameters: dose 5 mg/kg, route ip; conditions: in vivo
[37] = Half life in mouse liver microsomes at 10 uM; format: ADME, Microsome
[38] = Half life in BALB/c mouse at 5 mg/kg, ip; format: ADME, organism-based; conditions: in vivo
Cannabinoid receptor 2 [39] = molecular target: T1, Cannabinoid receptor 2; assay: Agonist activity at N-terminal HA/Flag-tagged CB2 receptor (unknown origin) expressed in CHO cells assessed as increase in Akt phosphorylation at 300 nM measured after 15 mins in presence of CB2 receptor antagonist, AM630 by western blot analysis; format: functional, cell-based
Cannabinoid receptor 2 [40] = molecular target: T1, Cannabinoid receptor 2; assay: Agonist activity at LgBiT-fused CB2 receptor (unknown origin) coexpressed with miniGalphai-SmBiT in HEK293T cells assessed as G-protein recruitment measured after 10 mins in presence of CB2 receptor antagonist, AM630 by NanoBiT luciferase assay; format: functional, cell-based
[41] = Intrinsic clearance in human liver at 10 uM measured per kg body weight; format: ADME, tissue-based
Cannabinoid receptor 2 [42] = molecular target: T1, Cannabinoid receptor 2; assay: Agonist activity at N-terminal HA/Flag-tagged CB2 receptor (unknown origin) expressed in CHO cells assessed as increase in ERK1/2 phosphorylation measured after 15 mins by western blot analysis; format: functional, cell-based; conditions: filed as agonist, dose 12-300 nM
[43] = AUC(0 to t) in BALB/c mouse at 5 mg/kg, po; format: ADME, organism-based; parameters: dose 5 mg/kg, route po; conditions: in vivo
[44] = Protein binding in human plasma by dialysis method; format: ADME, cell-free; conditions: read-out: PPB (converted)
[45] = Tmax in BALB/c mouse at 5 mg/kg, po; format: ADME, organism-based; conditions: in vivo
[46] = Oral bioavailability in BALB/c mouse at 5 mg/kg; format: ADME, organism-based; conditions: in vivo
Cannabinoid receptor 2 [47] = molecular target: T1, Cannabinoid receptor 2; assay: Agonist activity at human CB2 receptor expressed in CHO cells assessed as inhibition of forskolin-stimulated intracellular cAMP accumulation measured after 30 mins by Glosensor assay relative to control; format: functional, cell-based; conditions: filed as agonist
[48] = Tmax in BALB/c mouse at 5 mg/kg, ip; format: ADME, organism-based; conditions: in vivo
[49] = MRT(0 to t) in BALB/c mouse at 5 mg/kg, ip; format: ADME, organism-based; conditions: in vivo
Mus musculus [50] = assay: Antinociceptive activity against carrageenan-induced inflammatory C57BL/6 mouse model assessed as reduction in paw thickness at 20 mg/kg, ip measured at 5 hrs and 2 hrs following carrageenan and compound challenge respectively by digital caliper analysis; format: functional, organism-based
Cannabinoid receptor 2 [51] = molecular target: T1, Cannabinoid receptor 2; assay: Agonist activity at human CB2 receptor expressed in CHO cells assessed as inhibition of forskolin-stimulated intracellular cAMP accumulation measured after 30 mins by Glosensor assay; format: functional, cell-based
[52] = Intrinsic clearance in human liver microsomes at 10 uM measured per mg protein; format: ADME, Microsome; conditions: read-out: CLH
[53] = Intrinsic clearance in mouse liver microsomes at 10 uM measured per mg protein; format: ADME, Microsome; conditions: read-out: CLH
[54] = Metabolic stability of the compound in rat liver microsomes assessed as parent compound remaining at 10 uM measured after 60 mins; format: ADME, Microsome; conditions: read-out: Stability
[55] = Metabolic stability of the compound in mouse liver microsomes assessed as parent compound remaining at 10 uM measured after 60 mins; format: ADME, Microsome; conditions: read-out: Stability
[56] = Intrinsic clearance in mouse liver at 10 uM measured per kg body weight; format: ADME, tissue-based
[57] = Clearance in BALB/c mouse at 5 mg/kg, ip; format: ADME, organism-based; conditions: in vivo

Which results are given for `O=C1CC(c2nc(-c3ccc(F)c4cn[nH]c34)no2)CCCN1c1ccc(F)cc1` (centres undefined)?
Activity (CHO [1]): inactive; Activity (CHO [2]): inactive; MRT last [3]: 49.8 min; Cmax [4]: 1080 ng/mL; Activity (Mus musculus [5]): inactive; clearance [6]: 41.2 mL/min/kg; CLH [7]: 232 mL/min/kg; Activity (Mus musculus [8]): Active; Ratio EC50 (Homo sapiens): > 1430; CL/F [9]: 50.8 mL/min/kg; Activity (CHO [10]): inactive; Activity (CHO [11]): inactive; AUC(0-t) [12]: 413 ng·h/mL; Activity [13]: Non-Toxic; EC50 (Cannabinoid receptor 1): > 30000 nM; remaining at 1 h, 10 µM [14]: 46.3%; Activity (Cannabinoid receptor 2 [15]): inactive; half-life at 10 µM [16]: 60.3 min; MRT last [17]: 128 min; half-life [18]: 224 min; half-life [19]: 42 min; Tmax [20]: 4.8 min; microsomal CLint at 10 µM [21]: 130 µL/min/mg; Cmax [22]: 615 ng/mL; half-life [23]: 70.8 min; fraction unbound [24]: 0.074; half-life at 10 µM [25]: 10.7 min; Activity (Mus musculus [26]): Dose-Dependent Effect; Activity (Cannabinoid receptor 2 [27]): Dose-Dependent Effect; Activity [28]: Non-Toxic; Activity [29]: inactive; fraction unbound [30]: 0.032; AUC(0-inf) [31]: 18000 ng·h/mL; EC50 (Cannabinoid receptor 2 [32]): 84.7 nM; Cmax [33]: 621 ng/mL; bioavailability [34]: 88.5%; Activity (Mus musculus [35]): inactive; AUC(0-t) [36]: 1830 ng·h/mL; half-life at 10 µM [37]: 13.1 min; half-life [38]: 56.4 min; Activity (Cannabinoid receptor 2 [39]): inactive; Activity (Cannabinoid receptor 2 [40]): inactive; CLH [41]: 28.8 mL/min/kg; Activity (Cannabinoid receptor 2 [42]): Dose-Dependent Effect; AUC(0-t) [43]: 1660 ng·h/mL; fraction unbound [44]: 0.011; Tmax [45]: 25.2 min; bioavailability [46]: 80.5%; Emax (Cannabinoid receptor 2 [47]): 87%; Tmax [48]: 19.8 min; MRT last [49]: 103 min; Activity (Mus musculus [50]): Active; EC50 (Cannabinoid receptor 2 [51]): 21 nM; microsomal CLint at 10 µM [52]: 23 µL/min/mg; microsomal CLint at 10 µM [53]: 106 µL/min/mg; remaining at 1 h, 10 µM [54]: 1.83%; remaining at 1 h, 10 µM [55]: 3.15%; CLH [56]: 415 mL/min/kg; CL/F [57]: 45.8 mL/min/kg
